# Laboratory results reported in publication PMC6566782, “Prodrugs for Skin Delivery of Menahydroquinone-4, an Active Form of Vitamin K2(20), Could Overcome the Photoinstability and Phototoxicity of Vitamin K2(20)” (International Journal of Molecular Sciences, 2019).
# Columns and labels:
# HaCaT cells [1] = assay: Cell viability assay (CellTiter-Glo) 24 h after UVA irradiation; format: cell-based, Human; conditions: 24 h after UVA irradiation 15 J/cm^2
# Protocol: The in vitro phototoxicity of MK-4 and MKH derivatives were assessed by measuring the intracellular ROS generation and the viability of human epidermal keratinocyte cells (HaCaT) after UVA irradiation in the presence or absence of MK-4 and MKH derivatives. Intracellular ROS generation was determined using the cell permeable probe 2′,7′-dichlorofluorescein diacetate (DCFH-DA), which rapidly reacts with hydroxyl radicals. Cells without drug treatment or UVA irradiation were used as the control. ROS generation and cell viability are shown in Figure 5 and Figure 6, respectively.
# HaCaT cells were seeded at 1.0 × 10^5 cells/well in 96-well plates and cultured overnight. Thereafter, cells were washed with PBS, and test compound solutions in PBS described above were added to each well and re-incubated for 1 h. After incubation, cells were irradiated with UVA at an irradiation intensity of 15 J/cm^2. After irradiation, cells were washed twice with PBS and replaced in culture medium. After 24 h incubation, cell viability was measured using a CellTiter-Glo® Luminescent Cell Viability Assay (Promega, Madison, WI, USA).
# [2] = Singlet oxygen generation assay (p-nitrosodimethylaniline-based ROS assay) after UVA irradiation; format: physicochemical; conditions: phosphate-buffered aqueous solution pH 7.4, UVA irradiation 0–15 J/cm^2
# Protocol: It has been reported that singlet oxygen promotes the peroxidation of skin surface lipids, resulting in the induction of skin inflammation. Thus, we measured the irradiation intensity-dependent generation of singlet oxygen by MK-4, MKH-DMG, and MKH-SUC in phosphate-buffered aqueous solution after UVA irradiation using a p-nitrosodimethylaniline-based ROS assay (Figure 4).
# MK-4 and MKH derivatives were dissolved in a phosphate buffer (NaPB, pH 7.4) containing 0.2% polyoxyethylene hydrogenated castor oil 40 (HCO 40, obtained as a gift sample from Nikko Chemicals Co., Ltd., Osaka, Japan), 2% dimethyl sulfoxide, and 0.1% glycerol. The solutions were treated according to the singlet oxygen assay method (The Japanese Center for the Validation of Alternative Methods, JaCVAM) and irradiated with UVA light from a CL-1000L UV Crosslinker (UVP, Upland, CA, USA). Absorbance was measured using an Infinite M200 PRO (Tecan Life Sciences, Zurich, Switzerland).
# HaCaT cells [3] = assay: Intracellular MKO levels after treatment with sunlight-irradiated MK-4 and MKH derivatives; format: cell-based, Human; conditions: 48 h treatment, compound irradiated with sunlight 12,000 lx for 3 h
# Protocol: To confirm whether MKH prodrugs could successfully deliver MKH to dermal cells under sunlight, the intracellular level of MKO in HaCaT cells was determined following administration of MK-4 and MKH derivatives in the presence or absence of artificial sunlight irradiation. […] MKO levels were increased after administration of MKH-DMG and MKH-SUC in sunlight, but these were approximately 60% that of the cells treated with their respective compounds in shading conditions.
# HaCaT cells were seeded at 5.0 × 10^4 cells/well in 24-well plates and allowed to attach for 48 h. Cells were cultured in medium containing 5 µM MK-4, MKH-DMG, or MKH-SUC, then medium was removed and cells were washed twice with PBS. Cells were collected in 500 µL of PBS and sonicated. Cell homogenates were combined with an equal volume of methanol and three times volume of n-hexane, vortexed for 2 min, and centrifuged at 1750× g for 10 min. The organic layer was evaporated under N2 gas. The residue was reconstituted with 20 μL of methanol, and subjected to LC-MS/MS, as described below. The protein concentration of the cell homogenate was determined using a BCA protein assay kit (Thermo Fisher Scientific, Waltham, MA, USA).
# Solutions of 200 µM MK-4, MKH-DMG, or MKH-SUC in ethanol were irradiated with artificial sunlight for 3 h at 12,000 lx in quartz cells. After irradiation, ethanol was evaporated under N2 gas. […]
# [4] = Photostability in ethanol under artificial sunlight (12,000 lx), LC-MS/MS; format: physicochemical; conditions: 1 µM in ethanol
# Protocol: The relative irradiance of artificial sunlight at wavelengths of 300 to 800 nm is almost equal to that of natural sunlight, according to the manufacturer. […] MKH-SUC concentration decreased according to an apparent first order rate both with and without shading, although the rate of decrease was accelerated without shading. MKH-DMG and MKH-SUC were more photostable than MK-4 by ca. 50- and 3-fold, respectively.
# Solutions of MK-4 and MKH derivatives in ethanol (1 µM) were irradiated with artificial sunlight (SOLAX 100 W XC-100 B, Seric Ltd., Tokyo, Japan) at 12,000 lx in quartz cells. Illuminance was measured using a digital luminometer (LX-1108, Mother Tool). Irradiation samples (1 µM in ethanol) were irradiated with artificial sunlight at 12,000 lx, and with monochromatic light (279, 341, 373, 404, and 435 nm) using a multi-wavelength irradiation spectrometer (MM 3, Bunkoukeiki Co., Ltd., Tokyo, Japan). Irradiation intensity was measured using an irradiation energy measurement power meter (MM 3, Bunkoukeiki Co., Ltd.).
# LC-MS/MS was performed using an LCMS-8050 Liquid Chromatograph Mass Spectrometer (Shimadzu, Kyoto, Japan) and Shimadzu HPLC System (system controller (CBM-20A), pump (LD-20AD), degasser (DGU-20As), UV detector (SPD-20A), and auto injector (SIL-20AC HT)). Separations were performed on a CAPCELL PAK C18 UG120 (3 μm, 2.0 mm × 100 mm, Shiseido Co., Ltd., Tokyo, Japan) using a mobile phase of 10 mmol/L ammonium acetate and 0.1% acetic acid in methanol and water (97:3) at a flow rate of 0.4 mL/min. Column temperature was maintained at 40 °C. The mass spectrometer was equipped with an electrospray ionization and was run in positive ion mode. Identification and quantitation were based on MS/MS-multiple reaction monitoring mode using transition ions as follows: m/z 445 → 187 for the [M+H]^+ MK-4 adduct, m/z 445 → 187 for the [M + H]^+ chromenol adduct, 619 → 58 for the [M + H]^+ MKH-DMG adduct, m/z 532 → 58 for the [M + H]^+ MKH-mono-DMG adduct, m/z 664 → 187 for the [M + H]^+ MKH-SUC adduct, m/z 564 → 187 for the [M + H]^+ MKH-mono-SUC adduct, and m/z 461 → 81 for the [M + H]^+ MKO adduct.
smiles,measurement,setting,value
"CC(C)=CCC/C(C)=C/CC/C(C)=C/CC/C(C)=C/CC1=C(C)C(=O)c2ccccc2C1=O [MK-4, menaquinone-4, reference compound]",cell viability,HaCaT cells [1],decreased dose-dependently
same,singlet oxygen generation,[2],increased formation of singlet oxygen in an irradiation energy-dependent manner
same,intracellular MKO level after sunlight irradiation compared to shade,HaCaT cells [3],seriously reduced
same,apparent first order rate constant (k) of degradation,"[4]; artificial sunlight 12,000 lx, 25 °C",8.239 h⁻¹
same,concentration change under shading,"[4]; shading, 25 °C",unchanged under shading
same,main degradation product,[4]; sunlight irradiation (MKH-SUC also under shading),MK-4 chromenol
same,half-life at 1 µM,"[4]; ethanol solution in quartz cells, artificial sunlight 12,000 lx, 25 °C, read-out: half-life (t1/2) of degradation (converted)",5.04 min
